Measurements published in patent US9249147B2, “Tyrosine kinase inhibitors” (CHEMBRIDGE CORPORATION, priority 2008, dated 2016).
Values joined by “and” are separate entries in the source; they are usually repeats but may differ in a detail not shown here. Equal entries are not always repeated. Where two headings read alike, the source gives them in different places.

Columns and labels:
IGF1R = target: T1, IGF1R (Homo sapiens, UniProt P08069); assay: IGF1R kinase assay; assay type: biochemical
T1 construct: 6×His- or GST-tagged kinase domain fragments of the corresponding RTKs expressed in baculovirus system; host or cells: baculovirus system
Method in brief: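 The AlphaScreen PT66 format of the NPM-ALK assay was applied with minor modifications to commercial recombinant His/GST-tagged kinase domains. Compound (0.078125–40 μM) was incubated 30 min at RT with 10 μM ATP and biotinylated poly-GT in Tris pH 7.5/MgCl2/MnCl2/DTT buffer, then beads 60 min. Read at 520–680 nm; IC50 and Ki derived.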

H929 = assay: Cell line IC50, MM (IGF1R) H929; assay type: cell-based; conditions: Homo sapiens, NCI-H929; Table 2, cell line
UConn = assay: Cell proliferation inhibition, ALCL line UConn; assay type: cell-based; conditions: Table 2, cell line; read-out: IC50 ALCL (ALK) Uconn
Source text: (§1) Cell proliferation inhibition assays were run for compound (II) with the five target NPM-ALK-dependent ALCL cell lines (Karpas 299, SuDHL-1, JB6, SupM2, UConn) and 12 unrelated cell lines (HEK293, CHO-K1, MCF7, HepG2, H292, H520, H1581, H596, H522, CHA-GO-K1, UMC-11, SK-MES1). […] The pronounced target cell-killing effect is also observed (molecular mechanisms to be determined).

JB6 = assay: Cell proliferation inhibition, ALCL line JB6; assay type: cell-based; conditions: Table 2, cell line, read-out: IC50 ALCL (ALK) JB6
Source text: as §1

ALK = ALK (Homo sapiens, UniProt Q9UM73); assay: ALK kinase assay (Kinase-Glo / AlphaScreen, purified NPM-ALK); assay type: biochemical; set-up: fused to the complete intracytoplasmic portion of ALK containing the functional tyrosine kinase domain; 6xHis; made in house; host or cells: insect cells; the other entry of the earlier key: NPM1 (P06748, Nucleophosmin)
Karpas299 = assay: Cell proliferation inhibition, ALCL line Karpas299; assay type: cell-based; conditions: Homo sapiens, KARPAS-299; Table 2, cell line; read-out: IC50 ALCL (ALK) Karpas299
Source text: The IL-3-dependent lymphoid cell line BaF3 or BaF3 rendered IL-3-independent by engineered expression of NPM-ALK were used in parallel to test each candidate inhibitor. Control wells contained DMSO solvent without test compound. Specific inhibition of ALK signaling is indicated in the assay by impairment of NPM-ALK-expressing BaF3 cell growth without alterations in the growth of parental BaF3. This colorimetric assay of cell proliferation and viability is based upon reduction of the yellow monotetrazolium salt XTT to a water-soluble orange formazan dye, a reaction catalyzed by mitochondrial dehydrogenases in living cells only (Cell Proliferation Kit II, Cat. #1 465 015, Roche Biochemicals). In addition to testing compounds for their ability to impair the growth of BaF3 cells engineered to express NPM-ALK, the NPM-ALK-positive human lymphoma cell line Karpas-299 (Deutsche Sammlung von Mikroorganismen and Zellkulturen GmbH (DSMZ) no. ACC 31), the human BCR-ABL-positive chronic myeloid leukemia cell line K562 (American Type Culture Collection (ATCC) no. CCL-243), and the human T-cell leukemia line Jurkat (DSMZ no. ACC 282) were tested in these assays.
Each compound stock in 100% DMSO was first diluted using 8% DMSO/culture medium to produce a working stock of 250 μM compound. This working stock was then used to perform serial 1:1 dilutions (i.e., 125 μM, 62.5 μM, 31.25 μM, 15.625 μM, 7.8125 μM, and 3.90625 μM) using DMSO-free culture medium. Twenty (20) μL of each of these dilutions was then added to the cells (2×10^4 cells in 80 μL culture medium per 96-well) to obtain the final test compound concentrations (i.e., 25 μM, 12.5 μM, 6.25 μM, 3.125 μM, 1.5625 μM, and 0.78125 μM).
as §1

WI38 = assay: Cell line IC50, control WI38; assay type: cell-based; conditions: Homo sapiens, WI-38; Table 2, cell line
TRKA = TRKA (Homo sapiens, UniProt P04629); assay: TRKA kinase assay; assay type: biochemical; set-up: 6×His- or GST-tagged kinase domain fragments of the corresponding RTKs expressed in baculovirus system; host or cells: baculovirus system; conditions: Table 1; read-out: TRKA IC50
IRK = target: T2, IRK (Homo sapiens, UniProt P06213); assay: IRK (insulin receptor kinase) assay; assay type: biochemical; conditions: Table 1; read-out: IRK IC50
T2 construct: 6×His- or GST-tagged kinase domain fragments of the corresponding RTKs expressed in baculovirus system; host or cells: baculovirus system
Procedure: To determine inhibition of several tyrosine kinases, such as IGF1R, InsR, Alk, TrkA and Jak2, kinase assays are conducted using either Kinase-Glo (Promega) or AlphaScreen (PerkinElmer) kinase assay platforms. The Kinase-Glo Luminescent Kinase Assay is a homogeneous method for measuring kinase activity by determining the amount of ATP remaining after a kinase reaction. The luminescent signal is proportional to the amount of ATP and inversely proportional to the amount of kinase activity. Tyrosine kinase PT66 AlphaScreen Assay is a high-sensitivity homogeneous, anti-phosphotyrosine antibody-mediated luminescent proximity method measuring incorporation of phosphate in synthetic poly(Glu-Tyr) substrate. The kinase preparations used consist of purified recombinant, 6×His- or GST-tagged kinase domain fragments of the corresponding RTKs expressed in baculovirus system.
Compounds with a range of concentrations 40 μM, 20 μM, 10 μM, 5 μM, 2.5 μM, 1.25 μM, 0.625 μM, 0.3125 μM, 0.15625 μM and 0.078125 μM were incubated with NPM-ALK, which was produced in insect cells as a 6×HIS-tagged fusion protein and purified using nickel-charged resin chromatography, for 30 minutes at RT in the presence of 10 μM ATP and 7.0 ng biotinylated poly-GT. A 1:1 mixture of […] and donor beads was then added to the reaction and incubated for an additional 60 minutes at RT. The assay was conducted on a MultiPROBE liquid handling workstation (PerkinElmer) in a 384-well plate format with a total reaction volume of 40 μL per well. Working stocks of all compounds were dissolved in 100% DMSO and serial dilutions of the compounds were performed using kinase buffer (50 mM Tris-HCl (pH 7.5), 5 mM MgCl2, 5 mM MnCl2, 2 mM DTT (added freshly before use), 0.01% Tween-20) containing 5% DMSO. […] Data were collected as optical readings at 520-680 nm on a Fusion™ microplate analyzer (PerkinElmer), and IC50 and Ki values calculated using PRISM3.0 software (GraphPad Software, Inc., San Diego, Calif.). The same assay was also used with minor modifications to assess the IC50 and Ki values for selected compounds against five other tyrosine kinases (IRK, IGF1R, Flt3, Abl, Src), all of which were purchased from commercial vendors. PolyGT-Biotin was bought from CIS Biointernational Cat. #61GT0BLD; ATP—from Sigma Cat. # A7699; sodium orthovanadate—from Sigma Cat. #S-6508; phosphotyrosine (PT66) assay kit from PerkinElmer Cat. #6760602M; automated workstation tips (20 μL): PerkinElmer Cat. #6000657; and OptiPlate-384 (white)—from PerkinElmer Cat. #6007299.

[1] = Plasma Protein Binding (Human), equilibrium dialysis; assay type: in vitro ADME; conditions: 1.0E−05 M; for % Protein Bound, Mean: equilibrium dialysis; for % Protein Bound, 1st/2nd: individual data
[2] = Table 2, read-out: Enzymatic IGF1R IC50
[3] = Table 2, read-out: Enzymatic ALK IC50

Chain of TRKA (P04629 510-781 limits assumed): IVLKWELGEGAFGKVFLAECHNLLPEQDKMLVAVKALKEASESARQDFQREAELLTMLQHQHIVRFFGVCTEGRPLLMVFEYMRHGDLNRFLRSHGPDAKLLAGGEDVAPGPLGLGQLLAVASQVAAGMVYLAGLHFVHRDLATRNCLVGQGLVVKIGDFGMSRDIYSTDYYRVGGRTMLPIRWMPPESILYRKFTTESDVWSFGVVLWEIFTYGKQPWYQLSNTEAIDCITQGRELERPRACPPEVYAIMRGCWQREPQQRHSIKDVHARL
T1 sequence (P08069 999-1274 limits assumed): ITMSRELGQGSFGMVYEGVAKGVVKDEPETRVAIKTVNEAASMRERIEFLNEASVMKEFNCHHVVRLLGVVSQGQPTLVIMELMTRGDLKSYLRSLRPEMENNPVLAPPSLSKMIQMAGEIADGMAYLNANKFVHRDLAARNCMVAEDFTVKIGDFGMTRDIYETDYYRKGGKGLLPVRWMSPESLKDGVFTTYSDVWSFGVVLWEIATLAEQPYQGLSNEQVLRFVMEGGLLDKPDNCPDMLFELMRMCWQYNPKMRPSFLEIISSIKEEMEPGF
Chain of ALK (Q9UM73 with tags, fused parts or gaps): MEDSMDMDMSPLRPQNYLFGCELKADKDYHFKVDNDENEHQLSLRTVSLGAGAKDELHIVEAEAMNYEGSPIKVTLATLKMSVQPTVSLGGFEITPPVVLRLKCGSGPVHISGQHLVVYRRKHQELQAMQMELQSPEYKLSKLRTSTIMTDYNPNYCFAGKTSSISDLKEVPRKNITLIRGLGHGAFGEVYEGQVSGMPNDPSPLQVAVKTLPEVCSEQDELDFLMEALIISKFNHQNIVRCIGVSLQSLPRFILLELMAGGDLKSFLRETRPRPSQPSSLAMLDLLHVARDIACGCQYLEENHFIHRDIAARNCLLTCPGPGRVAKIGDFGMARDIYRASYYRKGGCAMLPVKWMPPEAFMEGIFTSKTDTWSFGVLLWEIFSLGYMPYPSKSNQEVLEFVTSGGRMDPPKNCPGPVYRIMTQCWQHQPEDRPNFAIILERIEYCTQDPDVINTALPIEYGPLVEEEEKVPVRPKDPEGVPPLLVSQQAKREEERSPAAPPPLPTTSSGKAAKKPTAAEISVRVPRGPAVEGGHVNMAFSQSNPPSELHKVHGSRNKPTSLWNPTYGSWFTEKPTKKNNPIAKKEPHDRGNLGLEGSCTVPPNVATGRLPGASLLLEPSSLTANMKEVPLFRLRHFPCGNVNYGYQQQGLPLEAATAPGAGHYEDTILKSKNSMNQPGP
T2 sequence (P06213 1023-1298 limits assumed): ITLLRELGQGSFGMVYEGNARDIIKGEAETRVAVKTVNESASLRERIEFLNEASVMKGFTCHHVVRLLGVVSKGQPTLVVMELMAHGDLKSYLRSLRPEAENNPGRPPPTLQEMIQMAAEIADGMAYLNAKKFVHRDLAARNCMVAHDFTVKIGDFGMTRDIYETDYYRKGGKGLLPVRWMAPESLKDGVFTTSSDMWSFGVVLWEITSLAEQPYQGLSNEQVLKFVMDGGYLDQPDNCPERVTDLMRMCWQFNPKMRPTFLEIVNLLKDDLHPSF

SMILES | IC50 (IGF1R; [2]) | IC50 (H929) | IC50 (ALK; [3]) | IC50 (Karpas299) | IC50 (IGF1R; Table 1, read-out: IGF1R IC50) | IC50 (TRKA) | IC50 (IRK) | IC50 (ALK; Table 1, read-out: ALK IC50) | % Protein Bound, Mean [1] | % Protein Bound, 1st/2nd [1] | IC50 (UConn) | IC50 (JB6) | IC50 (WI38)
Cc1cccc(C)c1C[C@H](C)Nc1cc[nH]c(=O)c1-c1nc2cc3c(cc2[nH]1)C(=O)N(CCN1CCCC1)C3 | – | – | – | – | > 1000 nM | < 10 nM | > 1000 nM | 10 to 100 nM | – | – | – | – | –
O=C1c2cc3nc(-c4c(NC[C@@H](O)c5cccc(Cl)c5)cc[nH]c4=O)[nH]c3cc2C(=O)N1CCN1CCCC1 | – | – | – | – | 10 to 100 nM | 10 to 100 nM | 100 to 250 nM | 10 to 100 nM | – | – | – | – | –
Cc1c(F)cccc1C[C@H](C)Nc1cc[nH]c(=O)c1-c1nc2cc3c(cc2[nH]1)C(=O)N(CCN1CCCC1)C3 | – | – | – | – | 250 to 1000 nM | < 10 nM | 100 to 250 nM | 10 to 100 nM | – | – | – | – | –
CCCC(=O)Nc1ccc(OCC(O)CNC(C)C)c(C(C)=O)c1 (centres unmarked) [Acebutolol] | – | – | – | – | – | – | – | – | 19.2% | 21.4% and 16.9% | – | – | –

The next lines start with results.

IC50 (IGF1R; [2]) | IC50 (H929) | IC50 (ALK; [3]) | IC50 (Karpas299) | IC50 (IGF1R; Table 1, read-out: IGF1R IC50) | IC50 (TRKA) | IC50 (IRK) | IC50 (ALK; Table 1, read-out: ALK IC50) | % Protein Bound, Mean [1] | % Protein Bound, 1st/2nd [1] | SMILES | IC50 (UConn) | IC50 (JB6) | IC50 (WI38)
100 to 250 nM | 250 to 1000 nM | < 10 nM | 10 to 100 nM | – | – | – | – | – | – | C[C@@H](Cc1cc(F)cc(F)c1F)Nc1cc[nH]c(=O)c1-c1nc2cc3c(cc2[nH]1)CN(CCN(C)C)C3=O [drawing 356] | 10 to 100 nM | 10 to 100 nM | > 1000 nM
250 to 1000 nM | 250 to 1000 nM | 10 to 100 nM | 10 to 100 nM | – | – | – | – | – | – | C[C@@H](Cc1cc(F)cc(F)c1F)Nc1cc[nH]c(=O)c1-c1nc2cc3c(cc2[nH]1)CN(CCN1CCCC1)C3=O [drawing 358] | 10 to 100 nM | 10 to 100 nM | > 1000 nM
10 to 100 nM | 250 to 1000 nM | < 10 nM | 10 to 100 nM | – | – | – | – | – | – | CNCCN1Cc2cc3[nH]c(-c4c(N[C@@H](C)Cc5cc(F)ccc5C)cc[nH]c4=O)nc3cc2C1=O [drawing 355] | 10 to 100 nM | < 10 nM | > 1000 nM
100 to 250 nM | 250 to 1000 nM | < 10 nM | 10 to 100 nM | – | – | – | – | – | – | Cc1ccc(F)cc1C[C@H](C)Nc1cc[nH]c(=O)c1-c1nc2cc3c(cc2[nH]1)CN(CCN(C)C)C3=O [drawing 357] | 10 to 100 nM | 10 to 100 nM | > 1000 nM
– | – | – | – | – | – | – | – | 99.2% | 99.2% | CC(=O)CC(c1ccccc1)c1c(O)c2ccccc2oc1=O (centres unmarked) [Warfarin] | – | – | –
